How the values were obtained:
CYP17A1 [1] = molecular target: T1, CYP17A1 (Homo sapiens, UniProt P05093); test: CYP17A1 17,20-lyase activity assay in NCI-H295R cells (tritiated water release); format: cell-based; conditions: 4 h, DMSO = 100, read-out: CYP17A1 Lyase activity, Mean (percentage of activity remaining relative to the control)
T1 construct: immortalised human adrenal cells expressing CYP17A1 and other steroidogenic enzymes; endogenous in cells; host or cells: NCI-H295R (human adrenal cells)
T1 sequence (P05093 1-508): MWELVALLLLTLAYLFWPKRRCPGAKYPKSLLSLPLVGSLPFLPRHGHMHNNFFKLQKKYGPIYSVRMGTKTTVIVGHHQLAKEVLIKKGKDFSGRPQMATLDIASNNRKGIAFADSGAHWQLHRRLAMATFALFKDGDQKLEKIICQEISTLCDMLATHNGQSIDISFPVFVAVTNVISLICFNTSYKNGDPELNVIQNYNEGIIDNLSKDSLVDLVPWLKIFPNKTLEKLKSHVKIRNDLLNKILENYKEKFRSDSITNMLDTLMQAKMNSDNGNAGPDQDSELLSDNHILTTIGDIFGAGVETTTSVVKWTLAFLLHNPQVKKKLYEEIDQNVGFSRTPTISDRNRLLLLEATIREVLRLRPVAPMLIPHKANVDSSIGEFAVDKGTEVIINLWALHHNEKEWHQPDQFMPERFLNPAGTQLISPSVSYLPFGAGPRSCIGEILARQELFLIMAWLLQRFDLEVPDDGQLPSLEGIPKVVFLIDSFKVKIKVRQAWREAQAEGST
Description: (§1) Human adrenal NCI-H295R cells are an established model for assay of CYP17A1 activities. The NCI-H295R cells were seeded in 12-well plates at 500 000 cells per well and incubated overnight. On the following day, 10 µM of test compounds were added to the wells with fresh medium and incubated for 4 h. Abiraterone was used as a reference, and DMSO was included as a control. For assessing CYP17A1 hydroxylase activity, cells were treated with [^14C]-Progesterone at 10 000 cpm/1 µM per well. Trilostane was added prior to the test compounds and substrate to inhibit 3β-hydroxysteroid dehydrogenase activity so that a clean assay of only CYP17A1 activity could be performed[20]^,[27]^,[28]. Radiolabeled steroids were extracted from the media using a mixture of ethyl acetate and isooctane (1:1 v/v) and separated by Thin Layer Chromatography (TLC) on silica gel-coated aluminium plates (Supelco® Analytics, Sigma-Aldrich Chemie GmbH, Taufkirchen, Germany). TLC spots were visualised on a phosphor screen and detected by autoradiography using a Typhoon™ FLA-7000 PhosphorImager (GE Healthcare, Uppsala, Sweden). Radioactivity was quantified with ImageQuant™ TL analysis software (GE Healthcare Europe GmbH, Freiburg, Germany), and enzyme activity was expressed as the percentage of radioactivity incorporated into the product relative to the total radioactivity. For CYP17A1 lyase activity, cells were exposed to 50 000 cpm/1 µM [21-^3H]-17α-hydroxypregnenolone per well under similar conditions. The tritiated water release assay was used to measure the conversion of 17OH-Pregnenolone to DHEA. Steroids in the media were precipitated using a 5% activated charcoal/0.5% dextran solution. Enzyme activity was evaluated based on the water-soluble tritiated by-product formed in equimolar amounts with DHEA, with radioactivity in the aqueous phase quantified by liquid scintillation counting (MicroBeta2® Plate Counter, PerkinElmer Inc., Waltham, MA, USA). Percent inhibition was calculated relative to control samples.

CYP17A1 [2] = molecular target: T1, CYP17A1; test: CYP17A1 17α-hydroxylase activity assay in NCI-H295R cells ([14C]-progesterone, TLC); format: cell-based; conditions: 4 h, DMSO = 100, read-out: CYP17A1 Hydroxylase activity, Mean (percentage of activity remaining relative to the control)
Description: as §1

LNCaP cells = test: Alamar blue (resazurin) cell viability, LNCaP; format: cell-based, human; conditions: 10 µM, 48 h
Description: LNCaP and RWPE-1 cells were plated in 96-well plates at 10 000 cells per well and incubated overnight at 37 °C with 5% CO2. VCaP cells were plated at 12 000 cells per well under the same conditions. After 24 h, the medium was replaced with fresh medium containing the compounds or abiraterone at a final concentration of 10 µM. Cells were incubated for an additional 24 and 48 h. Cell viability was measured using the Alamar Blue assay. Post-incubation, 0.05 mg/mL Alamar Blue solution in phosphate-buffered saline (PBS) was added to each well. The plates were incubated in the dark at 37 °C for 4 h, and fluorescence was measured at an excitation wavelength of 550 nm and an emission wavelength of 590 nm. Cell viability was calculated relative to control sample treated with DMSO. All experiments were conducted in triplicate.

| remaining activity at 10 µM (CYP17A1 [1]) [%] | remaining activity at 10 µM (CYP17A1 [2]) [%] | Structure (SMILES) | Effect on LNCaP cell viability (in words) (LNCaP cells) |
| --- | --- | --- | --- |
| 94.7 | 84 | N#Cc1c(-c2ccccc2)cc(-c2cccnc2)nc1N [Compound 3, 6-Amino-4-phenyl-[2,3′-bipyridine]-5-carbonitrile] |  |
| 93.5 | 76 | c1cncc(-c2ccc(-c3ccc4[nH]ccc4c3)cc2)c1 [Compound 13, 5-(4-(Pyridin-3-yl)phenyl)-1H-indole] |  |
| 84.8 | 103 | N#Cc1c(-c2ccncc2)cc(-c2ccncc2)c(C#N)c1N [Compound 8, 2-Amino-4,6-di(pyridin-4-yl)isophthalonitrile] |  |

Second part, the compound before the results:

| Structure (SMILES) | remaining activity at 10 µM (CYP17A1 [1]) [%] | remaining activity at 10 µM (CYP17A1 [2]) [%] | Effect on LNCaP cell viability (in words) (LNCaP cells) |
| --- | --- | --- | --- |
| N#Cc1c(-c2ccccc2)cc(-c2ccccc2)nc1N [Compound 2, 2-Amino-4,6-diphenylnicotinonitrile] | 93.7 | 67 |  |
| N#Cc1c(-c2ccncc2)cc(-c2cccnc2)c(C#N)c1N [Compound 9, 2-Amino-4-(pyridin-3-yl)-6-(pyridin-4-yl)isophthalonitrile] | 66.8 | 63 |  |
| N#Cc1c(-c2cccnc2)cc(-c2cccnc2)c(C#N)c1N [Compound 7, 2-Amino-4,6-di(pyridin-3-yl)isophthalonitrile] | 113 | 96 |  |
| c1cc(-c2ccc(-c3ccc4[nH]ccc4c3)cc2)ccn1 [Compound 15, 5-(4-(Pyridin-4-yl)phenyl)-1H-indole] | 57.3 | 87 | strong effect |
| N#Cc1c(-c2cccnc2)cc(-c2ccccc2)nc1N [Compound 4, 2′-Amino-6′-phenyl-[3,4′-bipyridine]-3′-carbonitrile] | 68.5 | 71 |  |
| CCCn1nnc2cc(-c3cc(-c4ccncc4)c(C#N)c(N)c3C#N)ccc21 [Compound 10, 2-Amino-4–(1-propyl-1H-benzo[d][1,2,3]triazol-5-yl)-6-(pyridin-4-yl)isophthalonitrile] | 58.2 | 32 |  |
